Assay results from patent US7192924B2, “Corticotropin releasing factor 2 receptor agonists” (priority 2002, dated 2007).
Peptide text beside a SMILES is read from it.

Experiments:
CRF2R = target: T1, CRF2R (Homo sapiens, UniProt Q13324); assay: CRF2R agonist activity (EC50, Emax), called comparative CRF binding; assay type: cell-based; conditions: read-out: CRF2R EC50
T1 sequence (Q13324 1-411): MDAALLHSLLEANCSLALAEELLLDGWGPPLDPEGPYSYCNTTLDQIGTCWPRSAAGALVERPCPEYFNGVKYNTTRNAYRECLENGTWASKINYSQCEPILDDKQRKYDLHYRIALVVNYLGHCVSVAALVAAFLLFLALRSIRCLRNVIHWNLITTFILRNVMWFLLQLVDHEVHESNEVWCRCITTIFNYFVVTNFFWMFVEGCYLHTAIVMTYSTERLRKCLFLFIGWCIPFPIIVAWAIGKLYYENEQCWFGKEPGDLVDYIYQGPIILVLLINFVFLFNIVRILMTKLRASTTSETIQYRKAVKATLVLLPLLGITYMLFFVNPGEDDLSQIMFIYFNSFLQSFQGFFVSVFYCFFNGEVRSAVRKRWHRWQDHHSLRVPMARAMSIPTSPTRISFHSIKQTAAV
Excerpt: (§1) The pharmacological activity and selectivity of the peptides of present invention can be determined using published test procedures. See, e.g, U.S. patent application Ser. No. 09/799,978. Because CRF2R and CRF1R are homologous proteins, it is expected that a certain proportion of agonists for CRF2R will also function as agonists of CRF1R. As discussed above, activation of CRF1R induces activation of the HPA axis since increased corticosteroid production leads to skeletal muscle atrophy. In most cases in which an increase in muscle mass or function is desired, it is not desirable to activate the HPA axis.
(§2) Because it is desirable to discriminate binding between CRF2R, as compared with CRF1R, the assays described above may be conducted using a cell, or membrane from a cell, which expresses only CRF2R or the assays can be conducted with a recombinant source of CRF2R. Cells expressing both forms of CRFR may be modified using homologous recombination to inactivate or otherwise disable the CRF1R gene. Alternatively, if the source of CRFR contains more than one CRFR type, the background signal produced by the receptor which is not of interest must be subtracted from the signal obtained in the assay. […] Known antagonists of CRFRs include, but, are not limited to, antalarmin (CRF1R selective), antisauvagine-30 (CRF2R selective) and astressin (nonselective for CRF1R/CRF2R).
(§3) Cell-based assays include the steps of contacting cells which express CRF1R or CRF2R with a peptide of the present invention or control and measuring activation of the CRFR by measuring the expression or activity of components of the CRFR signal transduction pathways.
(§4) As described in the background section above, CRFRs appear to couple through several different pathways including Gαs, Gαq or Gαi, depending upon the cell type. It is thought that agonist activation of CRFR allows the receptor to signal via any of these pathways, provided that the necessary pathway components are present in the particular cell type. Thus, to assay a particular peptide of the present invention for CRFR activation, an assay can use any of the signal transduction pathways as the readout even if the relevant cell type for treatment, in vivo, couples CRFR to skeletal muscle atrophy via a different pathway. […] Assays for measuring activation of these signaling pathways are known in the art.
(§5) For example, after contact with a peptide of the present invention, lysates of the cells can be prepared and assayed for induction of cAMP. cAMP is induced in response to Gαs activation. Because Gαs is activated by receptors other than CRFR and because a test peptide may be exerting its effect through CRFRs or by another mechanism, two control comparisons are relevant for determining whether the peptide increases levels of cAMP via activation of a CRFR. One control compares the cAMP level of cells contacted with the peptide and the cAMP level of cells contacted with a control compound (i.e., the vehicle in which the peptide is dissolved).
(§6) In one example, cAMP induction is measured with the use of DNA constructs containing the cAMP responsive element linked to any of a variety of reporter genes can be introduced into cells expressing CRFRs. Such reporter genes include, but are not limited to, chloramphenicol acetyltransferase (CAT), luciferase, glucuronide synthetase, growth hormone, fluorescent proteins (e.g., Green Fluorescent Protein), or alkaline phosphatase. Following exposure of the cells to the peptide, the level of reporter gene expression can be quantitated to determine the peptide's ability to increase cAMP levels and thus determine the peptide's ability to activate the CRFR.
(§7) In addition to using cells expressing full length CRFRs, cells can be engineered which express CRFRs containing the ligand binding domain of the receptor coupled to, or physically modified to contain, reporter elements or to interact with signaling proteins.

CRF1R = target: T2, CRF1R (Homo sapiens, UniProt P34998); assay: CRF1R agonist activity (EC50, Emax), called comparative CRF binding; assay type: cell-based; conditions: read-out: CRF1R EC50
T2 sequence (P34998 24-415): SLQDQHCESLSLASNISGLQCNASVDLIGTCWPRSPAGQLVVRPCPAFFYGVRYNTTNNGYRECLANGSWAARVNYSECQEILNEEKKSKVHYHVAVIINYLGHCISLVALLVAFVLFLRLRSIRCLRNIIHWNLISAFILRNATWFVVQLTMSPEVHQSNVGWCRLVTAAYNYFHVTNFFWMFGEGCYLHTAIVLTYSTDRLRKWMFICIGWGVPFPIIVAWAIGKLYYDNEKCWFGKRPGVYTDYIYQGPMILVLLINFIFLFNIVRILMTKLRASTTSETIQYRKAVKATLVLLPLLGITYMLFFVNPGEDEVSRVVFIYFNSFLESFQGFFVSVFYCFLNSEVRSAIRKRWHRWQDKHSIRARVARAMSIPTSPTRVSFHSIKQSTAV
Excerpt: as §1, §2, §3, §4, §5, §6, §7

With CC[C@H](C)[C@H](N)C(=O)N[C@H](C(=O)N[C@@H](CC(C)C)C(=O)N[C@@H](CO)C(=O)N[C@@H](CC(C)C)C(=O)N[C@@H](CC(=O)O)C(=O)N[C@H](C(=O)N1CCC[C@H]1C(=O)N[C@H](C(=O)NCC(=O)N[C@@H](CC(C)C)C(=O)N[C@@H](CC(C)C)C(=O)N[C@@H](CCC(N)=O)C(=O)N[C@H](C(=O)N[C@@H](CC(C)C)C(=O)N[C@@H](CC(C)C)C(=O)N[C@@H](CCC(=O)O)C(=O)N[C@@H](CCC(N)=O)C(=O)N[C@@H](CCC(=O)O)C(=O)N[C@@H](CCCNC(=N)N)C(=O)N[C@@H](CCC(N)=O)C(=O)N[C@@H](CCC(=O)O)C(=O)N[C@@H](C)C(=O)N[C@@H](C)C(=O)N[C@@H](CCCNC(=N)N)C(=O)N[C@@H](CCC(=O)O)C(=O)N[C@@H](CCC(N)=O)C(=O)N[C@@H](C)C(=O)N[C@H](C(=O)N[C@H](C(=O)N[C@@H](CC(N)=O)C(=O)N[C@@H](C)C(=O)N[C@@H](CCCNC(=N)N)C(=O)N[C@H](C(=O)N[C@@H](CC(C)C)C(=O)N[C@@H](C)C(=O)N[C@@H](CCCNC(=N)N)C(=O)N[C@H](C(N)=O)C(C)C)[C@@H](C)CC)[C@@H](C)O)[C@@H](C)O)[C@@H](C)CC)[C@@H](C)CC)C(C)C)C(C)C [compound 118] (H-IVLSLDVPIGLLQILLEQERQEAAREQATTNARILARV-NH2; N-terminus assumed) the EC50 (CRF2R) was 14.6 nM and the EC50 (CRF1R) was > 100 nM.

With CC[C@H](C)[C@H](N)C(=O)N[C@H](C(=O)N[C@@H](CC(C)C)C(=O)N[C@@H](CO)C(=O)N[C@@H](CC(C)C)C(=O)N[C@@H](CC(=O)O)C(=O)N[C@H](C(=O)N1CCC[C@H]1C(=O)N[C@H](C(=O)NCC(=O)N[C@@H](CC(C)C)C(=O)N[C@@H](CC(C)C)C(=O)N[C@@H](CCC(N)=O)C(=O)N[C@H](C(=O)N[C@@H](CC(C)C)C(=O)N[C@@H](CC(C)C)C(=O)N[C@@H](CCC(=O)O)C(=O)N[C@@H](CCC(N)=O)C(=O)N[C@@H](CCC(=O)O)C(=O)N[C@@H](CCCCN)C(=O)N[C@@H](C)C(=O)N[C@@H](CCCNC(=N)N)C(=O)N[C@@H](C)C(=O)N[C@@H](C)C(=O)N[C@@H](CCCNC(=N)N)C(=O)N[C@@H](CCC(=O)O)C(=O)N[C@@H](CCC(N)=O)C(=O)N[C@@H](C)C(=O)N[C@H](C(=O)N[C@H](C(=O)N[C@@H](CC(N)=O)C(=O)N[C@@H](C)C(=O)N[C@@H](CCCNC(=N)N)C(=O)N[C@H](C(=O)N[C@@H](CC(C)C)C(=O)N[C@@H](C)C(=O)N[C@@H](CCCNC(=N)N)C(=O)N[C@H](C(N)=O)C(C)C)[C@@H](C)CC)[C@@H](C)O)[C@@H](C)O)[C@@H](C)CC)[C@@H](C)CC)C(C)C)C(C)C [compound 121] (H-IVLSLDVPIGLLQILLEQEKARAAREQATTNARILARV-NH2) the EC50 (CRF2R) was 5.67 nM and the EC50 (CRF1R) was > 100 nM.

With CC[C@H](C)[C@H](N)C(=O)N[C@H](C(=O)N[C@@H](CC(C)C)C(=O)N[C@@H](CO)C(=O)N[C@@H](CC(C)C)C(=O)N[C@@H](CC(=O)O)C(=O)N[C@H](C(=O)N1CCC[C@H]1C(=O)N[C@H](C(=O)NCC(=O)N[C@@H](CC(C)C)C(=O)N[C@@H](CC(C)C)C(=O)N[C@@H](CCC(N)=O)C(=O)N[C@H](C(=O)N[C@@H](CC(C)C)C(=O)N[C@@H](CC(C)C)C(=O)N[C@@H](CCC(=O)O)C(=O)N[C@@H](CCC(N)=O)C(=O)N[C@@H](C)C(=O)N[C@@H](CCCNC(=N)N)C(=O)N[C@@H](C)C(=O)N[C@@H](CCC(=O)O)C(=O)N[C@@H](C)C(=O)N[C@@H](C)C(=O)N[C@@H](CCCNC(=N)N)C(=O)N[C@@H](CCC(=O)O)C(=O)N[C@@H](CCC(N)=O)C(=O)N[C@@H](C)C(=O)N[C@H](C(=O)N[C@H](C(=O)N[C@@H](CC(N)=O)C(=O)N[C@@H](C)C(=O)N[C@@H](CCCNC(=N)N)C(=O)N[C@H](C(=O)N[C@@H](CC(C)C)C(=O)N[C@@H](C)C(=O)N[C@@H](CCCNC(=N)N)C(=O)N[C@H](C(N)=O)C(C)C)[C@@H](C)CC)[C@@H](C)O)[C@@H](C)O)[C@@H](C)CC)[C@@H](C)CC)C(C)C)C(C)C [compound 122] (H-IVLSLDVPIGLLQILLEQARAEAAREQATTNARILARV-NH2; N-terminus assumed) the EC50 (CRF2R) was 3.31 nM and the EC50 (CRF1R) was ≥ 1000 nM.

In the case of CC[C@H](C)[C@H](N)C(=O)N[C@H](C(=O)N[C@@H](CC(C)C)C(=O)N[C@@H](CO)C(=O)N[C@@H](CC(C)C)C(=O)N[C@@H](CC(=O)O)C(=O)N[C@H](C(=O)N1CCC[C@H]1C(=O)N[C@H](C(=O)NCC(=O)N[C@@H](CC(C)C)C(=O)N[C@@H](CC(C)C)C(=O)N[C@@H](CCC(N)=O)C(=O)N[C@H](C(=O)N[C@@H](CC(C)C)C(=O)N[C@@H](CC(C)C)C(=O)N[C@@H](CCC(=O)O)C(=O)N[C@@H](CCC(N)=O)C(=O)N[C@@H](C)C(=O)N[C@@H](CCCNC(=N)N)C(=O)N[C@@H](CCC(N)=O)C(=O)N[C@@H](CCC(=O)O)C(=O)N[C@@H](C)C(=O)N[C@@H](C)C(=O)N[C@@H](CCCNC(=N)N)C(=O)N[C@@H](CCC(=O)O)C(=O)N[C@@H](CCC(N)=O)C(=O)N[C@@H](C)C(=O)N[C@H](C(=O)N[C@H](C(=O)N[C@@H](CC(N)=O)C(=O)N[C@@H](C)C(=O)N[C@@H](CCCNC(=N)N)C(=O)N[C@H](C(=O)N[C@@H](CC(C)C)C(=O)N[C@@H](C)C(=O)N[C@@H](CCCNC(=N)N)C(=O)N[C@H](C(N)=O)C(C)C)[C@@H](C)CC)[C@@H](C)O)[C@@H](C)O)[C@@H](C)CC)[C@@H](C)CC)C(C)C)C(C)C [compound 123] (H-IVLSLDVPIGLLQILLEQARQEAAREQATTNARILARV-NH2; N-terminus assumed), the EC50 (CRF2R) is reported as 3.49 nM and the EC50 (CRF1R) is reported as > 1000 nM.

With CC[C@H](C)[C@H](N)C(=O)N[C@H](C(=O)N[C@@H](CC(C)C)C(=O)N[C@@H](CO)C(=O)N[C@@H](CC(C)C)C(=O)N[C@@H](CC(=O)O)C(=O)N[C@H](C(=O)N1CCC[C@H]1C(=O)N[C@H](C(=O)NCC(=O)N[C@@H](CC(C)C)C(=O)N[C@@H](CC(C)C)C(=O)N[C@@H](CCC(N)=O)C(=O)N[C@H](C(=O)N[C@@H](CC(C)C)C(=O)N[C@@H](CC(C)C)C(=O)N[C@@H](CCC(=O)O)C(=O)N[C@@H](CCC(N)=O)C(=O)N[C@@H](CCC(=O)O)C(=O)N[C@@H](CCCCN)C(=O)N[C@@H](CCC(N)=O)C(=O)N[C@@H](CCC(=O)O)C(=O)N[C@@H](C)C(=O)N[C@@H](C)C(=O)N[C@@H](CCCNC(=N)N)C(=O)N[C@@H](CCC(=O)O)C(=O)N[C@@H](CCC(N)=O)C(=O)N[C@@H](C)C(=O)N[C@H](C(=O)N[C@H](C(=O)N[C@@H](CC(N)=O)C(=O)N[C@@H](C)C(=O)N[C@@H](CCCNC(=N)N)C(=O)N[C@H](C(=O)N[C@@H](CC(C)C)C(=O)N[C@@H](C)C(=O)N[C@@H](CCCNC(=N)N)C(=O)N[C@H](C(N)=O)C(C)C)[C@@H](C)CC)[C@@H](C)O)[C@@H](C)O)[C@@H](C)CC)[C@@H](C)CC)C(C)C)C(C)C [compound 125] (H-IVLSLDVPIGLLQILLEQEKQEAAREQATTNARILARV-NH2; N-terminus assumed) the EC50 (CRF2R) was 4.47 nM and the EC50 (CRF1R) was > 100 nM.
